Read-outs that look alike come from different tables or passages of the source.
Tests used:
[1] = Pharmacokinetics of intraperitoneal or intravenous injection in CD1 mice; assay type: in vivo; details: for concentration at 0.25 h / concentration at 0.5 h / concentration at 1 h / concentration at 2 h / concentration at 4 h / concentration at 8 h / concentration at 24 h / AUC(0-t) / half-life / concentration at 0.033 h / concentration at 0.083 h: male, CD1, mouse, plasma
Method in brief: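 Male CD1 mice, 6-8 weeks old, 3 per group, dosed IV (5 s injection; 10% HP-b-CD, 40 mM sodium acetate, 40 mM NaCl, pH 4.5) or IP (5% EtOH, 5% Solutol HS15 in D5W). Serial dorsal metatarsal vein blood, terminal heart puncture; plasma analysed by LC/MS/MS after acetonitrile precipitation, calibration 1-2000 ng/mL.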

[2] = PPB; assay type: in vitro ADME; details: plasma
[3] = IV 1.0 mg/kg, CD1 mice plasma, 24 h
[4] = ip, 10 mg/kg, IP 10 mg/kg, CD1 mice plasma, read-out: Conc. (ng/mL) Mouse 1
[5] = ip, 10 mg/kg, IP 10 mg/kg, CD1 mice plasma, read-out: Conc. (ng/mL) Mouse 2
[6] = ip, 10 mg/kg, IP 10 mg/kg, CD1 mice plasma, read-out: Conc. (ng/mL) Mouse 3
[7] = ip, 10 mg/kg, IP 10 mg/kg, CD1 mice plasma, read-out: Mean
[8] = iv, 1 mg/kg, IV 1.0 mg/kg, CD1 mice plasma, read-out: Conc. (ng/mL) Mouse 1
[9] = iv, 1 mg/kg, IV 1.0 mg/kg, CD1 mice plasma, read-out: Conc. (ng/mL) Mouse 2
[10] = iv, 1 mg/kg, IV 1.0 mg/kg, CD1 mice plasma, read-out: Conc. (ng/mL) Mouse 3
[11] = iv, 1 mg/kg, IV 1.0 mg/kg, CD1 mice plasma, read-out: Mean

Cc1ncsc1-c1ccc(CNC(=O)[C@@H]2C[C@@H](O)CN2C(=O)[C@@H](NC(=O)CCOCCCOc2ccc(Nc3ncc(C(F)(F)F)c(NCc4cccc(N(C)S(C)(=O)=O)c4)n3)cc2)C(C)(C)C)cc1 [Compound 103, (2S,4R)-1-((S)-3,3-dimethyl-2-(3-(3-(4-((4-((3-(N-methylmethylsulfonamido)benzyl)amino)-5-(trifluoromethyl)pyrimidin-2-yl)amino)phenoxy)propoxy)propanamido)butanoyl)-4-hydroxy-N-(4-(4-methylthiazol-5-yl)benzyl)pyrrolidine-2-carboxamide]
Conc. (ng/mL) Mouse 2 ([1]; IP 10 mg/kg, CD1 mice plasma, 24 h): BLOQ
Conc. (ng/mL) Mouse 1 [1, 3]: BLOQ
Conc. (ng/mL) Mouse 2 [1, 3]: BLOQ
Conc. (ng/mL) Mouse 3 [1, 3]: BLOQ
concentration at 0.25 h [1, 4]: 877 ng/mL
concentration at 0.25 h [1, 5]: 494 ng/mL
concentration at 0.25 h [1, 6]: 562 ng/mL
concentration at 0.25 h [1, 7]: 645 ng/mL
concentration at 0.5 h [1, 4]: 842 ng/mL
concentration at 0.5 h [1, 5]: 639 ng/mL
concentration at 0.5 h [1, 6]: 608 ng/mL
concentration at 0.5 h [1, 7]: 696 ng/mL
concentration at 1 h [1, 4]: 2010 ng/mL
concentration at 1 h [1, 5]: 2460 ng/mL
concentration at 1 h [1, 6]: 1230 ng/mL
concentration at 1 h [1, 7]: 1900 ng/mL
concentration at 2 h [1, 4]: 2130 ng/mL
concentration at 2 h [1, 5]: 3300 ng/mL
concentration at 2 h [1, 6]: 826 ng/mL
concentration at 2 h [1, 7]: 2090 ng/mL
concentration at 4 h [1, 4]: 1260 ng/mL
concentration at 4 h [1, 5]: 1210 ng/mL
concentration at 4 h [1, 6]: 768 ng/mL
concentration at 4 h [1, 7]: 1080 ng/mL
concentration at 8 h [1, 4]: 321 ng/mL
concentration at 8 h [1, 5]: 68.5 ng/mL
concentration at 8 h [1, 6]: 306 ng/mL
concentration at 8 h [1, 7]: 232 ng/mL
concentration at 24 h ([1]; ip, 10 mg/kg, IP 10 mg/kg, CD1 mice plasma, 24 h, read-out: Conc. (ng/mL) Mouse 1): 0.824 ng/mL
concentration at 24 h ([1]; ip, 10 mg/kg, IP 10 mg/kg, CD1 mice plasma, 24 h, read-out: Conc. (ng/mL) Mouse 3): 4.5 ng/mL
concentration at 24 h ([1]; ip, 10 mg/kg, IP 10 mg/kg, CD1 mice plasma, 24 h, read-out: Mean): 2.66 ng/mL
AUC(0-t) ([1]; ip, 10 mg/kg, read-out: AUClast (h * ng/mL) IP): 10400 ng·h/mL
half-life ([1]; ip, 10 mg/kg, read-out: T ½ (h) IP (converted)): 1.87 h
concentration at 0.033 h [1, 8]: 4370 ng/mL
concentration at 0.033 h [1, 9]: 3940 ng/mL
concentration at 0.033 h [1, 10]: 4020 ng/mL
concentration at 0.033 h [1, 11]: 4110 ng/mL
concentration at 0.083 h [1, 8]: 1660 ng/mL
concentration at 0.083 h [1, 9]: 1730 ng/mL
concentration at 0.083 h [1, 10]: 1820 ng/mL
concentration at 0.083 h [1, 11]: 1740 ng/mL
concentration at 0.25 h [1, 8]: 376 ng/mL
concentration at 0.25 h [1, 9]: 382 ng/mL
concentration at 0.25 h [1, 10]: 395 ng/mL
concentration at 0.25 h [1, 11]: 384 ng/mL
concentration at 0.5 h [1, 8]: 140 ng/mL
concentration at 0.5 h [1, 9]: 132 ng/mL
concentration at 0.5 h [1, 10]: 135 ng/mL
concentration at 0.5 h [1, 11]: 136 ng/mL
concentration at 1 h [1, 8]: 52.1 ng/mL
concentration at 1 h [1, 9]: 58.8 ng/mL
concentration at 1 h [1, 10]: 57.5 ng/mL
concentration at 1 h [1, 11]: 56.2 ng/mL
concentration at 2 h [1, 8]: 36.1 ng/mL
concentration at 2 h [1, 9]: 27.7 ng/mL
concentration at 2 h [1, 10]: 32.1 ng/mL
concentration at 2 h [1, 11]: 32 ng/mL
concentration at 4 h [1, 8]: 10.8 ng/mL
concentration at 4 h [1, 9]: 12.9 ng/mL
concentration at 4 h [1, 10]: 13 ng/mL
concentration at 4 h [1, 11]: 12.3 ng/mL
concentration at 8 h [1, 8]: 2.33 ng/mL
concentration at 8 h [1, 9]: 8.35 ng/mL
concentration at 8 h [1, 10]: 4.11 ng/mL
concentration at 8 h [1, 11]: 4.93 ng/mL
AUC(0-t) ([1]; iv, 1 mg/kg, read-out: AUClast (h * ng/mL) IV): 747 ng·h/mL
half-life ([1]; iv, 1 mg/kg, read-out: T ½ (h) IV (converted)): 2.44 h
fraction unbound [2]: 0.0022

Reference: US20200038513A1, “MODULATORS OF FAK PROTEOLYSIS AND ASSOCIATED METHODS OF USE” (ARVINAS OPERATIONS, INC., priority 2018, published 2020)
